In patent US12162858B2, “Quinoline derivatives as inhibitors of AXL/MER RTK and CSF1R” (QURIENT CO., LTD., priority 2018, dated 2024) one finds IC50 data, which are given here for 48 compounds.

CSF1R, sequence (P07333 20-972): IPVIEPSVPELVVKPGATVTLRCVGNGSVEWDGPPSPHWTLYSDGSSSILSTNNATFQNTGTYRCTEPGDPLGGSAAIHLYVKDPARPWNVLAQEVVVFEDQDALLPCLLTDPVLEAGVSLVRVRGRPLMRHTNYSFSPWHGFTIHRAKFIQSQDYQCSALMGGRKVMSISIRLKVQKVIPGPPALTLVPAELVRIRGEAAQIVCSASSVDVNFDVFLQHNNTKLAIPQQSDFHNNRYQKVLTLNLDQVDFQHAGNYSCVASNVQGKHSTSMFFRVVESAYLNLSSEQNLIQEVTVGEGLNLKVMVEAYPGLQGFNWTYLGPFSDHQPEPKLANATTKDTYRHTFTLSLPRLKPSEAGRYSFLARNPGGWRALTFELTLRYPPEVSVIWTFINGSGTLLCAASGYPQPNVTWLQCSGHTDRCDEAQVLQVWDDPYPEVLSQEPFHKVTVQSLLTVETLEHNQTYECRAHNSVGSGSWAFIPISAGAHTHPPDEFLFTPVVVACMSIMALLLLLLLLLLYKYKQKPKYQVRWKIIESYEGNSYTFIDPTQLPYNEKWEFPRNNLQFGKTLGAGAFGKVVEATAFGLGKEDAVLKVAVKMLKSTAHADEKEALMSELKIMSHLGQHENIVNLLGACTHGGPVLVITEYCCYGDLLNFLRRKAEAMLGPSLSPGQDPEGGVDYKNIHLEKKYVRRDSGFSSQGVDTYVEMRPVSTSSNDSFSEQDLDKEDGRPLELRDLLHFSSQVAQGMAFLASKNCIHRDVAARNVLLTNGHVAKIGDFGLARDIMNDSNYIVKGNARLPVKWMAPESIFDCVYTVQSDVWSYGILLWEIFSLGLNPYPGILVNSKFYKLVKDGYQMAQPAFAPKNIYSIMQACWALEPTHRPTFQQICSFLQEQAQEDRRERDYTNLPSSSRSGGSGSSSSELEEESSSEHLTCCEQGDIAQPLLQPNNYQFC

The assay concerns the target CSF1R (Homo sapiens, UniProt P07333). In words: Cellular CSF1R inhibition ELISA (p-CSF1R, M-CSF-induced) using THP-1 cells. It counts as cell-based. More on the design: THP-1 cells act as a model for human monocytes; endogenous in cells; host or cells: THP-1. In short, it runs like this:
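THP-1 cells (2×10^5/well, RPMI/10% FBS) were treated with compound, 10 doses in 3-fold steps, for 24 h at 37 °C in 0.2% DMSO final. They were then stimulated 5 min with human M-CSF (10 ng/ml final) and lysed. p-CSF1R was read by sandwich ELISA (HRP/TMB), with a sigmoidal dose-response fit.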
In general terms: In an ELISA, binding on a coated surface is turned into a signal by an enzyme label.
What is called IC50 is the concentration needed to halve the response being measured. A high value points to lower potency. As for `CCn1nc(C(=O)Nc2ccc(Oc3ccnc4cc(OC)c(OC)cc34)cn2)c(OCC(F)(F)F)c1C` [Compound 1], the IC50 is < 500 nM.
In the case of `COc1cc2nccc(Oc3ccc(NC(=O)c4nn(C(C)C)c(C)c4OCC(F)(F)F)nc3)c2cc1OC` [Compound 2] it was < 500 nM; in that of `COc1cc2nccc(Oc3ccc(NC(=O)c4nn(C5CC5)c(C(C)=O)c4OCC(F)(F)F)nc3)c2cc1OC` [Compound 3], < 500 nM.
With `COc1cc2nccc(Oc3ccc(NC(=O)c4nn(C5CCOC5)cc4OCC(F)(F)F)nc3)c2cc1OC` (stereo not drawn) [Compound 13], the IC50 was < 500 nM.
In the case of `CCCn1cc(OCCF)c(C(=O)Nc2ccc(Oc3ccnc4cc(OC)c(OC)cc34)cn2)n1` [Compound 14] it was < 500 nM.
Regarding `CCCn1cc(OCCC(O)CO)c(C(=O)Nc2ccc(Oc3ccnc4cc(OC)c(OC)cc34)cn2)n1` (stereo not drawn) [Compound 15], the IC50 is ≥ 1000 nM.
For `COc1cc2nccc(Oc3ccc(NC(=O)c4nn(CC(C)O)cc4OCC(F)(F)F)nc3)c2cc1OC` (stereo not drawn) [Compound 17], the IC50 was < 500 nM.
On to `COc1cc2nccc(Oc3ccc(NC(=O)c4nn(CCCO)cc4OCC(F)(F)F)nc3)c2cc1OC` [Compound 18], for which the 50% inhibitory concentration (IC50) was < 500 nM.
The figure for `COc1cc2nccc(Oc3ccc(NC(=O)c4nn(CC(C)=O)cc4OCC(F)(F)F)nc3)c2cc1OC` [Compound 19] is < 500 nM; for `CCC(=O)n1cc(OCC(F)(F)F)c(C(=O)Nc2ccc(Oc3ccnc4cc(OC)c(OC)cc34)cn2)n1` [Compound 20] it is < 500 nM; for `COc1cc2nccc(Oc3ccc(NC(=O)c4nn(CC(C)C)cc4OCC(F)(F)F)nc3)c2cc1OC` [Compound 21] it is < 500 nM.
In the case of `COc1cc2nccc(Oc3ccc(NC(=O)c4nn(C(C)(C)C)cc4OCC(F)(F)F)nc3)c2cc1OC` [Compound 22] it was < 500 nM.
Regarding `CCCn1cc(NCC(F)(F)F)c(C(=O)Nc2ccc(Oc3ccnc4cc(OC)c(OC)cc34)cn2)n1` [Compound 23], the IC50 is < 500 nM.
On to `COc1cc2nccc(Oc3ccc(NC(=O)c4nn(C5CCC5)cc4OCC(F)(F)F)nc3)c2cc1OC` [Compound 24], for which the IC50 is < 500 nM.
In turn, `CCCn1cc(OCC(F)(F)F)c(C(=O)Nc2ccc(Oc3ccnc4cc(OC)c(OC)cc34)c(F)c2)n1` [Compound 25] yielded a half-inhibitory concentration (IC50) of 500 to 1000 nM.
For `CCCn1cc(OCC(F)(F)F)c(C(=O)Nc2ccc(Oc3ccnc4cc(OC)c(OC)cc34)c(C)c2)n1` [Compound 26], the IC50 was < 500 nM.
The figure for `CCCn1cc(OCC(F)(F)F)c(C(=O)Nc2ccc(Oc3ccnc4cc(OC)c(OC)cc34)cc2C)n1` [Compound 27] is ≥ 1000 nM.
The figure for `CCCn1cc(OCC(F)(F)F)c(C(=O)Nc2ccc(Oc3ccnc4cc(OC)c(OC)cc34)cc2F)n1` [Compound 28] is 500 to 1000 nM; for `COc1cc2nccc(Oc3ccc(NC(=O)c4nn(C[C@@H](C)O)cc4OCC(F)(F)F)nc3)c2cc1OC` [Compound 29] it is < 500 nM; for `COc1cc2nccc(Oc3ccc(NC(=O)c4nn(C[C@H](C)O)cc4OCC(F)(F)F)nc3)c2cc1OC` [Compound 30] it is < 500 nM.
Regarding `CCCn1cc(OCCC(F)(F)F)c(C(=O)Nc2ccc(Oc3ccnc4cc(OC)c(OC)cc34)cn2)n1` [Compound 31], the IC50 is < 500 nM.
With `CCCn1cc(OCC(F)(F)F)c(C(=O)Nc2ccc(Oc3ccnc4cc(OC)c(OC)cc34)nn2)n1` [Compound 32], the IC50 was < 500 nM.
For `COc1cc2nccc(Oc3ccc(NC(=O)c4nn(C)cc4OCC(F)(F)F)nc3)c2cc1OC` [Compound 33], the IC50 was < 500 nM.
In the case of `CCCn1cc(N(C)CC2CCOCC2)c(C(=O)Nc2ccc(Oc3ccnc4cc(OC)c(OC)cc34)cn2)n1` [Compound 34] it was ≥ 1000 nM; in that of `CCCn1cc(OC(C)C)c(C(=O)Nc2ccc(Oc3ccnc4cc(OC)c(OC(F)(F)F)cc34)c(F)c2)n1` [Compound 35], ≥ 1000 nM; in that of `CCCCn1cc(OCC(F)(F)F)c(C(=O)Nc2ccc(Oc3ccnc4cc(OC)c(OC)cc34)cn2)n1` [Compound 36], < 500 nM.
Consider `COc1cc2nccc(Oc3ccc(NC(=O)c4nn(C)cc4OCC(F)(F)F)cc3C)c2cc1OC` [Compound 37], for which the half-inhibitory concentration (IC50) is < 500 nM.
On to `CCCn1cc(OCC(F)(F)F)c(C(=O)Nc2ccc(Oc3ccnc4cc(OC)c(OC)cc34)cc2)n1` [Compound 38], for which the IC50 lay in the range of 500 to 1000 nM.
For the compound `COc1cc2nccc(Oc3ccc(NC(=O)c4nn(CCC#N)cc4OCC(F)(F)F)nc3)c2cc1OC` [Compound 39], the IC50 was < 500 nM.
Turning to `COc1cc2nccc(Oc3ccc(NC(=O)c4nn(C5CCCC5)cc4OCC(F)(F)F)nc3)c2cc1OC` [Compound 40], the half-inhibitory concentration (IC50) is < 500 nM.
In the case of `COc1cc2nccc(Oc3ccc(NC(=O)c4nn(CC5CC5)cc4OCC(F)(F)F)nc3)c2cc1OC` [Compound 41] it was < 500 nM.
In the case of `COc1cc2nccc(Oc3ccc(NC(=O)c4nn(CC5CCC5)cc4OCC(F)(F)F)nc3)c2cc1OC` [Compound 42] it was < 500 nM; in that of `COc1cc2nccc(Oc3ccc(NC(=O)c4nn(CC5CCCCC5)cc4OCC(F)(F)F)nc3)c2cc1OC` [Compound 43], < 500 nM.
As to `COc1cc2nccc(Oc3ccc(NC(=O)c4nn(CC5CCOC5)cc4OCC(F)(F)F)nc3)c2cc1OC` (stereo not drawn) [Compound 44], the IC50 was < 500 nM.
`COc1cc2nccc(Oc3ccc(NC(=O)c4nn(C)cc4OCC(F)(F)F)c(F)c3)c2cc1OC` [Compound 45]: the IC50 is < 500 nM.
Regarding `COc1cc2nccc(Oc3ccc(NC(=O)c4nn(CCO)cc4OCC(F)(F)F)c(F)c3)c2cc1OC` [Compound 46], the half-maximal inhibitory concentration (IC50) lay within 500 to 1000 nM.
For the compound `COc1cc2nccc(Oc3ccc(NC(=O)c4nn(C5CCCC5)cc4OCC(F)(F)F)c(F)c3)c2cc1OC` [Compound 47], the IC50 was in the range of 500 to 1000 nM.
Consider `COc1cc2nccc(Oc3ccc(NC(=O)c4nn(CC(C)C)cc4OCC(F)(F)F)c(F)c3)c2cc1OC` [Compound 48], for which the concentration for half-maximal inhibition (IC50) lay within 500 to 1000 nM.
The figure for `COCCn1cc(OCC(F)(F)F)c(C(=O)Nc2ccc(Oc3ccnc4cc(OC)c(OC)cc34)cc2F)n1` [Compound 49] is ≥ 1000 nM; for `COc1cc2nccc(Oc3ccc(NC(=O)c4nn(C)cc4OCC(F)(F)F)cc3F)c2cc1OC` [Compound 50] it is 500 to 1000 nM.
For the compound `COc1cc2nccc(Oc3ccc(NC(=O)c4nn(CCO)cc4OCC(F)(F)F)cc3F)c2cc1OC` [Compound 51], the 50% inhibitory concentration (IC50) was < 500 nM.
Regarding `COc1cc2nccc(Oc3ccc(NC(=O)c4nn(C5CCCC5)cc4OCC(F)(F)F)cc3F)c2cc1OC` [Compound 52], the IC50 was ≥ 1000 nM.
`COc1cc2nccc(Oc3ccc(NC(=O)c4nn(CC(C)C)cc4OCC(F)(F)F)cc3F)c2cc1OC` [Compound 53]: the IC50 lay in the range of 500 to 1000 nM.
For `COCCn1cc(OCC(F)(F)F)c(C(=O)Nc2ccc(Oc3ccnc4cc(OC)c(OC)cc34)c(F)c2)n1` [Compound 54], the half-inhibitory concentration (IC50) was ≥ 1000 nM.
Take `COc1cc2nccc(Oc3ccc(NC(=O)c4nn(C5CCOC5)cc4OCC(F)(F)F)cc3F)c2cc1OC` (stereo not drawn) [Compound 55]: the 50% inhibitory concentration (IC50) is ≥ 1000 nM.
In the case of `COc1cc2nccc(Oc3ccc(NC(=O)c4nn(CCO)cc4OCC(F)(F)F)cc3C)c2cc1OC` [Compound 56], the 50% inhibitory concentration (IC50) is < 500 nM.
`COc1cc2nccc(Oc3ccc(NC(=O)c4nn(C5CCCC5)cc4OCC(F)(F)F)cc3C)c2cc1OC` [Compound 57] registered an IC50 of 500 to 1000 nM.
With `COc1cc2nccc(Oc3ccc(NC(=O)c4nn(CC(C)C)cc4OCC(F)(F)F)cc3C)c2cc1OC` [Compound 58], the IC50 is ≥ 1000 nM.
